Data: ChEMBL document CHEMBL3399921, “Novel 2-(2-phenalkyl)-1H-benzo[d]imidazoles as antitubercular agents. Synthesis, biological evaluation and structure-activity relationship” (Bioorg Med Chem, 2015)
pIC50: −log10 of the molar value. Values after ≈ are worked out from the molar mass of the structure shown.

Key:
[1] = Selectivity ratio of IC50 for mouse B16F10 cells to MIC for Mycobacterium tuberculosis Spec. 210; type: ADME, cell-based, B16-F10
[2] = Cytotoxicity against HEK cells after 7 days by MTT/SRB assay; type: cell-based; details: Homo sapiens, HEK293, 168 h
[3] = system: Mycobacterium tuberculosis; assay: Tuberculostatic activity against Mycobacterium tuberculosis Spec. 210 by two-fold classical test-tube method; type: functional
[4] = Cytotoxicity against neonatal HDF cells after 7 days by MTT/SRB assay; type: cell-based; details: Homo sapiens, 168 h
[5] = Selectivity ratio of IC50 for neonatal HDF cells to MIC for Mycobacterium tuberculosis Spec. 192; type: ADME, cell-based; details: human
[6] = system: Mycobacterium tuberculosis; assay: Tuberculostatic activity against Mycobacterium tuberculosis Spec. 192 by two-fold classical test-tube method; type: functional
[7] = Selectivity ratio of IC50 for mouse B16F10 cells to MIC for Mycobacterium tuberculosis Spec. 192; type: ADME, cell-based, B16-F10
[8] = system: Mycobacterium tuberculosis; assay: Tuberculostatic activity against Mycobacterium tuberculosis H37Rv by two-fold classical test-tube method; type: functional
[9] = Cytotoxicity against mouse B16F10 cells after 7 days by MTT/SRB assay; type: cell-based; details: B16-F10, 168 h
[10] = Selectivity ratio of IC50 for neonatal HDF cells to MIC for Mycobacterium tuberculosis Spec. 210; type: ADME, cell-based; details: human
[11] = Selectivity ratio of IC50 for neonatal HDF cells to MIC for Mycobacterium tuberculosis H37Rv; type: ADME, cell-based; details: human
[12] = Selectivity ratio of IC50 for mouse B16F10 cells to MIC for Mycobacterium tuberculosis H37Rv; type: ADME, cell-based, B16-F10

Compound | MIC [3] | MIC [6] | MIC [8] | other results
Cc1cc2nc(CCc3cc(Cl)cc(Cl)c3)[nH]c2cc1C | 5 µM (≈ 1.6 µg/mL) | 5 µM (≈ 1.6 µg/mL) | 2.5 µM (≈ 0.798 µg/mL) | selectivity ratio [1]: 6; pIC50 [2]: 5.11; pIC50 [4]: 4.24; selectivity ratio [5]: > 11; selectivity ratio [7]: 6; pIC50 [9]: 4.55; selectivity ratio [10]: > 11
Nc1c(NC(=O)CCc2ccccc2)cc(Cl)cc1[N+](=O)[O-] | 320 µM (≈ 102 µg/mL) | 320 µM (≈ 102 µg/mL) | 320 µM (≈ 102 µg/mL) | –
Nc1c(NC(=O)/C=C/c2ccccc2)cc(Cl)cc1[N+](=O)[O-] | 320 µM (≈ 102 µg/mL) | 320 µM (≈ 102 µg/mL) | 320 µM (≈ 102 µg/mL) | –
Nc1c(NC(=O)CCc2cc(Cl)cc(Cl)c2)cc(Cl)cc1[N+](=O)[O-] | 65 µM (≈ 25.3 µg/mL) | 8 µM (≈ 3.11 µg/mL) | 8 µM (≈ 3.11 µg/mL) | selectivity ratio [11]: 10; pIC50 [2]: 5.29; pIC50 [4]: 4.10; selectivity ratio [12]: 7.5; selectivity ratio [5]: 10; selectivity ratio [7]: 7.5; pIC50 [9]: 4.23
O=[N+]([O-])c1cc(Cl)cc2[nH]c(CCc3ccccc3)nc12 | 330 µM (≈ 99.6 µg/mL) | 330 µM (≈ 99.6 µg/mL) | 330 µM (≈ 99.6 µg/mL) | –
O=[N+]([O-])c1cc(Cl)cc2[nH]c(/C=C/c3ccccc3)nc12 | 340 µM (≈ 102 µg/mL) | 170 µM (≈ 51 µg/mL) | 170 µM (≈ 51 µg/mL) | –
O=[N+]([O-])c1cc(Cl)cc2[nH]c(CCc3cc(Cl)cc(Cl)c3)nc12 | 271 µM (≈ 100 µg/mL) | 68 µM (≈ 25.2 µg/mL) | 68 µM (≈ 25.2 µg/mL) | –
c1ccc(CCc2nc3cc4ccccc4cc3[nH]2)cc1 | 370 µM (≈ 101 µg/mL) | 370 µM (≈ 101 µg/mL) | 370 µM (≈ 101 µg/mL) | –
C(=C\c1nc2cc3ccccc3cc2[nH]1)/c1ccccc1 | 93 µM (≈ 25.1 µg/mL) | 93 µM (≈ 25.1 µg/mL) | 93 µM (≈ 25.1 µg/mL) | –
Clc1cc(Cl)cc(CCc2nc3cc4ccccc4cc3[nH]2)c1 | 18 µM (≈ 6.14 µg/mL) | 18 µM (≈ 6.14 µg/mL) | 18 µM (≈ 6.14 µg/mL) | –
Cc1cc2nc(CCc3ccccc3)[nH]c2cc1C | 6.3 µM (≈ 1.58 µg/mL) | 6.3 µM (≈ 1.58 µg/mL) | 6.3 µM (≈ 1.58 µg/mL) | pIC50 [2]: 5.60; pIC50 [4]: 5.10; pIC50 [9]: 5.41
Cc1cc2nc(/C=C/c3ccccc3)[nH]c2cc1C | 25 µM (≈ 6.21 µg/mL) | 13 µM (≈ 3.23 µg/mL) | 25 µM (≈ 6.21 µg/mL) | –
Fc1ccc2[nH]c(CCc3ccccc3)nc2c1 | 208 µM (≈ 50 µg/mL) | 208 µM (≈ 50 µg/mL) | 104 µM (≈ 25 µg/mL) | –
Fc1ccc2[nH]c(/C=C/c3ccccc3)nc2c1 | 105 µM (≈ 25 µg/mL) | 210 µM (≈ 50 µg/mL) | 210 µM (≈ 50 µg/mL) | –
Fc1ccc2[nH]c(CCc3cc(Cl)cc(Cl)c3)nc2c1 | 320 µM (≈ 98.9 µg/mL) | 320 µM (≈ 98.9 µg/mL) | 320 µM (≈ 98.9 µg/mL) | –
Cc1cc2nc(CCc3ccccc3)n(S(C)(=O)=O)c2cc1C | 76 µM (≈ 25 µg/mL) | 76 µM (≈ 25 µg/mL) | 76 µM (≈ 25 µg/mL) | –
Cc1cc2nc(/C=C/c3ccccc3)n(S(C)(=O)=O)c2cc1C | 310 µM (≈ 101 µg/mL) | 310 µM (≈ 101 µg/mL) | 310 µM (≈ 101 µg/mL) | –
Cc1cc2nc(CCc3cc(Cl)cc(Cl)c3)n(S(C)(=O)=O)c2cc1C | 32 µM (≈ 12.7 µg/mL) | 63 µM (≈ 25 µg/mL) | 32 µM (≈ 12.7 µg/mL) | –
CS(=O)(=O)n1c(CCc2ccccc2)nc2cc(F)ccc21 | 314 µM (≈ 100 µg/mL) | 314 µM (≈ 100 µg/mL) | 314 µM (≈ 100 µg/mL) | –
CS(=O)(=O)n1c(/C=C/c2ccccc2)nc2cc(F)ccc21 | 158 µM (≈ 50 µg/mL) | 158 µM (≈ 50 µg/mL) | 158 µM (≈ 50 µg/mL) | –
CS(=O)(=O)n1c(/C=C/c2cc(Cl)cc(Cl)c2)nc2cc(F)ccc21 | 130 µM (≈ 50.1 µg/mL) | 259 µM (≈ 99.8 µg/mL) | 130 µM (≈ 50.1 µg/mL) | –
Cc1cc2nc(CCc3ccccc3)n(S(=O)(=O)c3ccccc3)c2cc1C | 128 µM (≈ 50 µg/mL) | 64 µM (≈ 25 µg/mL) | 128 µM (≈ 50 µg/mL) | –
Cc1cc2nc(/C=C/c3ccccc3)n(S(=O)(=O)c3ccccc3)c2cc1C | 258 µM (≈ 100 µg/mL) | 258 µM (≈ 100 µg/mL) | 258 µM (≈ 100 µg/mL) | –
Cc1cc2nc(CCc3cc(Cl)cc(Cl)c3)n(S(=O)(=O)c3ccccc3)c2cc1C | 55 µM (≈ 25.3 µg/mL) | 55 µM (≈ 25.3 µg/mL) | 55 µM (≈ 25.3 µg/mL) | –
O=S(=O)(c1ccccc1)n1c(CCc2ccccc2)nc2cc(F)ccc21 | 263 µM (≈ 100 µg/mL) | 263 µM (≈ 100 µg/mL) | 263 µM (≈ 100 µg/mL) | –
O=S(=O)(c1ccccc1)n1c(/C=C/c2ccccc2)nc2cc(F)ccc21 | 264 µM (≈ 99.9 µg/mL) | 132 µM (≈ 50 µg/mL) | 132 µM (≈ 50 µg/mL) | –
O=S(=O)(c1ccccc1)n1c(CCc2cc(Cl)cc(Cl)c2)nc2cc(F)ccc21 | 56 µM (≈ 25.2 µg/mL) | 112 µM (≈ 50.3 µg/mL) | 56 µM (≈ 25.2 µg/mL) | –
NNC(=O)c1ccncc1 [ISONIAZID] | 182 µM (≈ 25 µg/mL) | 91 µM (≈ 12.5 µg/mL) | 91 µM (≈ 12.5 µg/mL) | –
NC(=O)c1cnccn1 [PYRAZINAMIDE] | 3250 µM (≈ 400 µg/mL) | 203 µM (≈ 25 µg/mL) | 203 µM (≈ 25 µg/mL) | –
CO[C@H]1/C=C/O[C@@]2(C)Oc3c(C)c(O)c4c(O)c(c(/C=N/N5CCN(C)CC5)c(O)c4c3C2=O)NC(=O)/C(C)=C\C=C\[C@H](C)[C@H](O)[C@@H](C)[C@@H](O)[C@@H](C)[C@H](OC(C)=O)[C@@H]1C [RIFAMPIN] | 2.8 µM (≈ 2.3 µg/mL) | 1.4 µM (≈ 1.15 µg/mL) | 1.4 µM (≈ 1.15 µg/mL) | –
